# Assay: xn = mol fraction of the nth substance listed
# Details: 298.15 K, 101.3 kPa
smiles,measurement,setting,value
CCOS(=O)(=O)[O-].CC[n+]1ccn(C)c1 + O,electrical conductivity,x1 = 0.004,1.35 S/m
same,electrical conductivity,x1 = 0.0084,2.11 S/m
same,electrical conductivity,x1 = 0.0133,2.76 S/m
same,electrical conductivity,x2 = 0.4084,1.3 S/m
same,electrical conductivity,x2 = 0.5931,2.03 S/m
same,electrical conductivity,x2 = 0.6983,2.55 S/m
same,electrical conductivity,x2 = 0.7663,3.03 S/m
same,electrical conductivity,x2 = 0.8139,3.54 S/m
same,electrical conductivity,x2 = 0.876,4.14 S/m
same,electrical conductivity,x2 = 0.8974,4.31 S/m
same,electrical conductivity,x2 = 0.9148,4.41 S/m
same,electrical conductivity,x2 = 0.9413,4.43 S/m
same,electrical conductivity,x2 = 0.9516,4.33 S/m
same,electrical conductivity,x2 = 0.9606,4.16 S/m
[Br][Al]([Br])[Br] + CC[n+]1ccccc1.[Br-],electrical conductivity,x2 = 0.65,0.292 S/m
O + CCOS(=O)(=O)[O-].CC[n+]1ccn(C)c1,electrical conductivity,x1 = 1,0.0026 S/m

# From a compilation of properties of binary mixtures (doi:10.1016/j.fluid.2006.05.028)
